Source: patent US9271978B2 (Zenith Epigenetics Corp., priority 2012, dated 2016)
Counter-ions that a name gives are not always drawn.

Target: T1, Brd4 bromodomain 1 (BRD4(1)) (Homo sapiens, UniProt O60885)
T1 construct: Illustrative results with the first bromodomain of Brd4; made in house; host or cells: E. coli BL21 (DE3)
Assay: Inhibition of tetra-acetylated histone H4 binding to Brd4 bromodomain 1 (TR-FRET)
Design: key: Active: Compounds with an IC50 value less than 30 μM were deemed to be active.; Not Active: Compounds with an IC50 value less than 30 μM were deemed to be active
Settings: tetra-acetylated histone H4 peptide, active = IC50 <30 μM
Experimental: Proteins were cloned and overexpressed with a N-terminal 6×His tag, then purified by nickel affinity followed by size exclusion chromatography. Briefly, E. coli BL21 (DE3) cells were transformed with a recombinant expression vector encoding N-terminally Nickel affinity tagged bromodomains from Brd2, Brd3, Brd4. Cell cultures were incubated at 37° C. with shaking to the appropriate density and induced overnight with IPTG. The supernatant of lysed cells was loaded onto Ni-IDA column for purification. Eluted protein is pooled, concentrated and further purified by size exclusion chromatography. Fractions representing monomeric protein were pooled, concentrated, aliquoted, and frozen at −80° C. for use in subsequent experiments.
Binding of tetra-acetylated histone H4 and BET bromodomains was confirmed by a Time Resolved Fluorescence Resonance Energy Transfer (TR-FRET) method. N-terminally His-tagged bromodomains (200 nM) and biotinylated tetra-acetylated histone H4 peptide (25-50 nM, Millipore) were incubated in the presence of Europium Cryptate-labeled streptavidin (Cisbio Cat. #610SAKLB) and XL665-labeled monoclonal anti-His antibody (Cisbio Cat. #61HISXLB) in a white 96 well microtiter plate (Greiner). For inhibition assays, serially diluted test compound was added to these reactions in a 0.2% final concentration of DMSO. Final buffer concentrations were 30 mM HEPES pH 7.4, 30 mM NaCl, 0.3 mM CHAPS, 20 mM phosphate pH 7.0, 320 mM KF, 0.08% BSA). After a 2-h incubation at room temperature, the fluorescence by FRET was measured at 665 and 620 nm by a SynergyH4 plate reader (Biotek). Illustrative results with the first bromodomain of Brd4 and the second bromodomain of Brd2 are shown below. The binding inhibitory activity was shown by a decrease in 665 nm fluorescence relative to 620 nm. IC50 values were determined from a dose response curve.

Cc1onc(C(N)=O)c1-c1ccc(=O)n(Cc2ccc(Cl)cc2)c1 [Example 202, 4-(1-(4-Chlorobenzyl)-6-oxo-1,6-dihydropyridin-3-yl)-5-methylisoxazole-3-carboxamide]
FRET activity (IC50 <30 μM) BRD4(1): Active

Cc1noc(C)c1-c1cc(N)c(=O)n(Cc2cccc3c2OCO3)c1 [Example 257, 3-amino-1-(benzo[d][1,3]dioxol-4-ylmethyl)-5-(3,5-dimethylisoxazol-4-yl)pyridin-2(1H)-one]
FRET activity (IC50 <30 μM) BRD4(1): Active

COC(=O)c1onc(C)c1-c1ccc(=O)n(Cc2ccc(Cl)cc2)c1 [Example 259, methyl 4-(1-(4-chlorobenzyl)-6-oxo-1,6-dihydropyridin-3-yl)-3-methylisoxazole-5-carboxylate]
FRET activity (IC50 <30 μM) BRD4(1): Not Active

Cc1noc(C)c1-c1cc(NS(C)(=O)=O)c(=O)n(Cc2ccccc2)c1 [Example 200, N-(1-Benzyl-5-(3,5-dimethylisoxazol-4-yl)-2-oxo-1,2-dihydropyridin-3-yl)methanesulfonamide]
FRET activity (IC50 <30 μM) BRD4(1): Not Active

COC(=O)c1noc(C)c1-c1ccc(=O)n(Cc2ccc(Cl)cc2)c1 [Example 199, Methyl 4-(1-(4-chlorobenzyl)-6-oxo-1,6-dihydropyridin-3-yl)-5-methylisoxazole-3-carboxylate]
FRET activity (IC50 <30 μM) BRD4(1): Not Active

Cc1noc(C)c1-c1cc(-n2ccnc2)c(=O)n(Cc2ccccc2)c1 [Example 204, 1-benzyl-5-(3,5-dimethylisoxazol-4-yl)-3-(1H-imidazol-1-yl)pyridin-2(1H)-one]
FRET activity (IC50 <30 μM) BRD4(1): Active

Cc1noc(C)c1-c1cc(Nc2ccncc2)c(=O)n(Cc2ccccc2)c1 [Example 195, 1-benzyl-5-(3,5-dimethylisoxazol-4-yl)-3-(pyridin-4-ylamino)pyridin-2(1H)-one]
FRET activity (IC50 <30 μM) BRD4(1): Active

Cc1noc(C(=O)O)c1-c1ccc(=O)n(Cc2ccc(Cl)cc2)c1 [Example 260, 4-(1-(4-chlorobenzyl)-6-oxo-1,6-dihydropyridin-3-yl)-3-methylisoxazole-5-carboxylic acid]
FRET activity (IC50 <30 μM) BRD4(1): Not Active

CNC(=O)c1onc(C)c1-c1ccc(=O)n(Cc2ccc(Cl)cc2)c1 [Example 265, 4-(1-(4-chlorobenzyl)-6-oxo-1,6-dihydropyridin-3-yl)-N,3-dimethylisoxazole-5-carboxamide]
FRET activity (IC50 <30 μM) BRD4(1): Not Active

Cc1noc(C)c1-c1cc(Nc2cnccn2)c(=O)n(Cc2ccccc2)c1 [Example 235, 1-benzyl-5-(3,5-dimethylisoxazol-4-yl)-3-(pyrazin-2-ylamino)pyridin-2(1H)-one]
FRET activity (IC50 <30 μM) BRD4(1): Active

Cc1noc(C)c1CNc1ccc(=O)n(Cc2ccccc2)n1 [Example 201, 2-Benzyl-6-(((3,5-dimethylisoxazol-4-yl)methyl)amino)pyridazin-3(2H)-one]
FRET activity (IC50 <30 μM) BRD4(1): Not Active

CON(C)C(=O)c1noc(C)c1-c1ccc(=O)n(Cc2ccccc2)c1 [Example 249, 4-(1-benzyl-6-oxo-1,6-dihydropyridin-3-yl)-N-methoxy-N,5-dimethylisoxazole-3-carboxamide]
FRET activity (IC50 <30 μM) BRD4(1): Not Active

Cc1ccc(Nc2cc(-c3c(C)noc3C)cn(Cc3ccccc3)c2=O)cn1 [Example 245, 1-benzyl-5-(3,5-dimethylisoxazol-4-yl)-3-((6-methylpyridin-3-yl)amino)pyridin-2(1H)-one]
FRET activity (IC50 <30 μM) BRD4(1): Active

Cc1noc(C)c1-c1cc(Nc2cccnc2)c(=O)n(Cc2ccccc2)n1 [Example 248, 2-benzyl-6-(3,5-dimethylisoxazol-4-yl)-4-(pyridin-3-ylamino)pyridazin-3(2H)-one]
FRET activity (IC50 <30 μM) BRD4(1): Active

COc1cc(=O)n(Cc2ccccc2)cc1-c1c(C)noc1C [Example 154, 1-Benzyl-5-(3,5-dimethylisoxazol-4-yl)-4-methoxypyridin-2(1H)-one]
FRET activity (IC50 <30 μM) BRD4(1): Active

Cc1noc(C)c1-c1cc(Nc2ccc(C#N)nc2)c(=O)n(Cc2ccccc2)c1 [Example 232, 5-((1-benzyl-5-(3,5-dimethylisoxazol-4-yl)-2-oxo-1,2-dihydropyridin-3-yl)amino)picolinonitrile]
FRET activity (IC50 <30 μM) BRD4(1): Active

Cc1noc(C)c1-c1cc(CN)c(=O)n(Cc2ccccc2)c1 [Example 266, 3-(Aminomethyl)-1-benzyl-5-(3,5-dimethylisoxazol-4-yl)pyridin-2(1H)-one]
FRET activity (IC50 <30 μM) BRD4(1): Not Active

Cc1onc(C(=O)O)c1-c1ccc(=O)n(Cc2ccc(Cl)cc2)c1 [Example 225, 4-(1-(4-Chlorobenzyl)-6-oxo-1,6-dihydropyridin-3-yl)-5-methylisoxazole-3-carboxylic acid]
FRET activity (IC50 <30 μM) BRD4(1): Not Active

Cc1noc(C)c1-c1cc(Nc2cncnc2)c(=O)n(Cc2ccccc2)c1 [Example 236, 1-benzyl-5-(3,5-dimethylisoxazol-4-yl)-3-(pyrimidin-5-ylamino)pyridin-2(1H)-one]
FRET activity (IC50 <30 μM) BRD4(1): Active

Cc1noc(C)c1-c1cc(N2CCN(C)CC2)c(=O)n(Cc2ccccc2)c1 [Example 153, 1-Benzyl-5-(3,5-dimethylisoxazol-4-yl)-3-(4-methylpiperazin-1-yl)pyridin-2(1H)-one Hydrochloride]
FRET activity (IC50 <30 μM) BRD4(1): Active

Cc1onc(CO)c1-c1ccc(=O)n(Cc2ccc(Cl)cc2)c1 [Example 159, 1-(4-Chlorobenzyl)-5-(3-(hydroxymethyl)-5-methylisoxazol-4-yl)pyridin-2(1H)-one]
FRET activity (IC50 <30 μM) BRD4(1): Active

Cc1noc(C)c1-c1cc(N)c(=O)n(C)c1 [Example 224, 3-Amino-5-(3,5-dimethylisoxazol-4-yl)-1-methylpyridin-2(1H)-one]
FRET activity (IC50 <30 μM) BRD4(1): Active

CC(c1ccccc1)n1nc(-c2ccc(O)cc2)ccc1=O (centres unmarked) [Example 178, 6-(4-hydroxyphenyl)-2-(1-phenylethyl)pyridazin-3(2H)-one]
FRET activity (IC50 <30 μM) BRD4(1): Active

Cc1noc(C)c1-c1cc(N2CCNCC2)c(=O)n(Cc2ccccc2)c1 [Example 161, 1-Benzyl-5-(3,5-dimethylisoxazol-4-yl)-3-(piperazin-1-yl)pyridin-2(1H)-one Hydrochloride]
FRET activity (IC50 <30 μM) BRD4(1): Not Active

Cc1nsc(C)c1-c1ccc(=O)n(Cc2ccccc2)c1 [Example 196, 1-benzyl-5-(3,5-dimethylisothiazol-4-yl)pyridin-2(1H)-one]
FRET activity (IC50 <30 μM) BRD4(1): Active

COc1ccc(Nc2cc(-c3c(C)noc3C)cn(Cc3ccccc3)c2=O)cn1 [Example 234, 1-benzyl-5-(3,5-dimethylisoxazol-4-yl)-3-((6-methoxypyridin-3-yl)amino)pyridin-2(1H)-one]
FRET activity (IC50 <30 μM) BRD4(1): Active

Cc1noc(C)c1-c1cc(NC2CCNC2)c(=O)n(Cc2ccccc2)c1 (centres unmarked) [Example 239, 1-benzyl-5-(3,5-dimethylisoxazol-4-yl)-3-(pyrrolidin-3-ylamino)pyridin-2(1H)-one]
FRET activity (IC50 <30 μM) BRD4(1): Active

Cc1noc(C)c1-c1cc(N)c(=O)n(Cc2ccncc2Cl)c1 [Example 253]
FRET activity (IC50 <30 μM) BRD4(1): Active

Cc1noc(C)c1-c1cc(C(=O)O)c(=O)n(Cc2ccccc2)c1 [Example 229, 1-Benzyl-5-(3,5-dimethylisoxazol-4-yl)-2-oxo-1,2-dihydropyridine-3-carboxylic acid]
FRET activity (IC50 <30 μM) BRD4(1): Active
